Source: patent publication US11324825B2, “Synthetic retinoids (in cell modulation)” (University of Durham, priority 2016, dated 2022)

How the values were obtained:
[1] = system: HaCaT cells; assay: Cell death on Zeiss Live Cell Observer after UV light; assay type: cell-based
Procedure: (§1) One day prior to imaging, HaCaT or J2 cells (20,000 approx.) were seeded into each well of a 6 well or 24 well plastic plate. Cells were allowed to incubate overnight in serum containing media. One to four hours before imaging the normal media was replaced with compound containing media, 1 mL per well. The cells were imaged in a 37° C. heated chamber and supplied with 5% CO2. Zeiss Live Cell Observer microscope: OSRAM 1×HBO 103 W/2 100 Watt Mercury Bulb, DAPI Excitation filter=335-385 nm, DAPI Emission filter=420-470 nm. Note: Cells were imaged in DMEM media which contains phenol red.

[2] = system: HaCaT cells; assay: ROS staining (Superoxide Detection Reagent, CellRox); assay type: cell-based, human; conditions: for superoxide stain fluorescence after UV exposure: UV treatment, rhodamine filter, 60-260 seconds after UV
Procedure: One day prior to imaging, HaCaT cells (20,000 approx) were seeded into each well of a 24 well plastic plate. Cells were allowed to incubate overnight in serum containing media. Three hours prior to imaging, the media in each well was replaced with fresh serum containing media which included a 1:500 dilution of Superoxide Detection Reagent, CellRox. […] The cells were incubated with the ROS stain at 37° C. for one hour. An hour and a half before imaging, the media in the negative control well was replaced with N-acetyl-L-cysteine diluted in serum containing media (1 mL, 10 mM). One hour before imaging the media in all but one of the other wells was replaced with compound containing media, 1 mL per well. Thirty minutes prior to imaging, the media in the positive control well was replaced with pyocyanine diluted in serum containing media (1 mL, 500 μM). Pyocyanine induces ROS within 20-30 minutes. The cells were imaged in a heated chamber and supplied with 5% CO2. The cells were imaged in a 37° C. heated chamber using the Zeiss LSM 880 with Airyscan confocal laser scanning microscope. Cells were irradiated with 405 nm laser to activate compounds and ROS dye was excited with 633 nm laser Note: Cells were imaged in DMEM media which contains phenol red.
In order to gain more insight into the mode of action leading to cell death, we examined the photo-initiated ROS production using the redox reactive dye, CellRox, which fluoresces in response to oxidation by reactive oxygen species.

[3] = system: HaCaT cells; assay: Cell death on Zeiss 880 confocal, 405 nm laser light; assay type: cell-based, human; conditions: 10 μM; for membrane blebbing on repeated exposures to 405 nm laser: up to 47 exposures
Procedure: One day prior to imaging, HaCaT cells (4000 approx.) were seeded into each well of an 8 well glass slide. Cells were allowed to incubate overnight in serum containing media. One hour before imaging the normal media was replaced with compound containing media, 1 mL per well. The cells were imaged in a 37° C. heated chamber using the Zeiss LSM 880 with Airyscan confocal laser scanning microscope. Note: Cells were imaged in DMEM media which contains phenol red.
Images of 10 μM compound treated cells were taken every twenty minutes and at each time point a treatment of 405 nm light at 50% laser strength was applied.

[4] = system: J2 cells, a mouse fibroblast cell line; assay: Cell death on Zeiss Live Cell Observer after UV light, J2 cells; assay type: cell-based
Procedure: as §1
Referring to FIG. 6: Cell death observations were consistent across different cell lines. […] A 10× objective lens at Phase 0 was used.

[5] = Absorbance and emission spectra; assay type: physicochemical; conditions: in chloroform
Procedure: FIG. 18 illustrates the combined normalised absorbance spectra of DC324, DC473 and DC474 in CHCl3 (10 μM);
FIG. 19 illustrates the combined normalised emission spectra of DC324, DC473 and DC474 in CHCl3 (100 nM) with excitation at their respective maximal absorption wavelengths;

[6] = system: HaCaT cells; assay: Dose response of cell death after 10 s UV (time lapse imaging); conditions: Homo sapiens, light or radiation study, 10 seconds of UV (DAPI filter, 20× objective), 24 hours after initial irradiation, read-out: EC50 based on average viable fraction of the cellular population
Procedure: The speed of death was tested at a number of concentrations in order to determine an estimate for the EC50 (half maximal effective concentration) value. Morphological changes were recorded using time lapse imaging at 5 minute intervals. The time taken between 10 s of UV light treatment and the first sign of damage to the cell membranes was recorded. Each cell in the field of view was treated as an individual data point, before taking an average of the time for each concentration.
Referring to FIG. 12: The dose-dependent response of HaCaT cells treated with DC324 and DC473 and 10 seconds of UV. UV exposure was administered through the DAPI filter and a 20× objective lens, phase 0.

SMILES | membrane blebbing and cell death following exposure to UV light (initial screening) ([1]; UV light) | superoxide stain fluorescence after UV exposure [2] | membrane blebbing on repeated exposures to 405 nm laser ([3]; 405 nm laser at 50% strength) | Absorbance wavelength max [5] [max nm] | Absorbance wavelength range [5] | EC50 [6] [nM] | also measured
CC1=C(/C=C/C(C)=C/C=C/C(C)=C/C(=O)O)C(C)(C)CCC1 [ATRA, All Trans-Retinoic Acid, reference compound] | no membrane blebbing was observed | produced an increased level of fluorescence post exposure to UV | No membrane blebbing was observed | – | – | – | –
CC(C)N1CCC(C)(C)c2cc(C#Cc3ccc(/C=C/C(=O)O)cc3)ccc21 [DC324, (2E)-3-(4-2-[4,4-Dimethyl-1-(propan-2-yl)-1,2,3,4-tetrahydroquinolin-6-yl]ethynylphenyl)prop-2-enoic Acid] | induced membrane blebbing and cell death | indicates superoxide production | Membrane blebbing was induced | 400 | 275-475 range nm | 200 | cells from the same well away from the site of UV exposure ([1]; 10 μM, no UV exposure): healthy cells; time to necrosis after UV treatment ([1]; 10 μM, single 10 s treatment with UV light, 10× objective lens, Phase 0): within two hours; speed of cell death induction compared with other compounds ([1]; UV light): most rapid inducer of cell death; CellRox (ROS-stimulated) relative fluorescence after irradiation ([2]; 405 nm light, before vs after irradiation): steady increase; UV untreated cells in the compound, same well as treated area ([4]; no UV): appear healthy after 26 hours; membrane blebbing after a single UV treatment ([4]; single UV treatment, 10× objective lens, Phase 0): displayed membrane blebbing within two hours; Emission wavelength max ([5]; excitation at 400 nm): 560 max nm; Emission wavelength range ([5]; excitation at 400 nm): 450-700 range nm; number of exposures until first bleb appeared ([3]; 405 nm laser at 50% strength): 21 exposures; type of cell death induced by 405 nm light ([3]; 405 nm laser at 50% strength): more characteristic of apoptosis than the cell death caused by UV light; cell death under 405 nm laser light versus DMSO control ([3]; 405 nm light at 50% laser strength every twenty minutes): significantly different to the DMSO control
C#CCN1CCC(C)(C)c2cc(C#Cc3ccc(/C=C/C(=O)OC)cc3)ccc21 [DC473] | induced membrane blebbing and cell death | – | – | 380 | 275-450 range nm | 180 | Emission wavelength max ([5]; excitation at 380 nm): 520 max nm; Emission wavelength range ([5]; excitation at 380 nm): 440-680 range nm
C#CCN1CCC(C)(C)c2cc(C#Cc3ccc(/C=C/C(=O)O)cc3)ccc21 [DC474, (2E)-3-(4-{2-[4,4-Dimethyl-1-(prop-2-yn-1-yl)-1,2,3,4-tetrahydroquinolin-6-yl]ethynyl}phenyl)prop-2-enoic Acid] | – | – | – | 380 | 275-450 range nm | – | Emission wavelength max ([5]; excitation at 300 nm): 540 max nm; Emission wavelength range ([5]; excitation at 300 nm): 450-700 range nm; melting point: 193 to 195 °C (dec.)
CC1(C)CCC(C)(C)c2cc(C#Cc3ccc(C(=O)O)cc3)ccc21 [EC23, reference compound] | no membrane blebbing was observed | – | – | – | – | – | –
